# In patent US9744191B2, “Antimicrobial compositions and methods” (Yale University, priority 2012, dated 2017):
# “Also recorded” adds a separate entry of the source.
# Experiments:
# [1] = test system: Saccharomyces cerevisiae MYH500; assay: Growth assays for antifungal compounds combined with fluoride: S. cerevisiae; type: cell-based; settings: for fungal growth inhibition compared with NaF: 30 mM and 80 mM, with amphotericin B; for effect of ion on MIC of amphotericin B: tested at 30 mM and 80 mM with amphotericin B; for inhibition of S. cereviciae growth: under the assay conditions, data not shown
# Experimental: (§1) Model Organism: Saccharomyces cerevisiae MYH500 [Genotype: his3-del200, leu2-3, ura3-52, lys2-801, trp1-1, gal2]
# Methods: • 1. Pick an isolated yeast colony (S. cerevisiae MYH500) from a plate, inoculate into 2 mL YPD medium in a 14 mL snap-cap tube and grow for 12 h at 30° C. on a shaker (200 rpm). The O.D.600 of the culture should be approximately 1.30. • 2. Two growth methods are used. (i) If culturing cells in 14 mL snap-cap tubes, dilute the cells 1:3 (1 vol. of 12 hr cell culture plus 2 vol. medium). Then, inoculate 2 mL YPD medium with 20 μL of 1/3 diluted cells (1% inoculation). […] (ii) For growth curve measurements, culture cells in a honeycomb 2 plate (Oy Growth Curves Ab Ltd) with 400 μL of medium inoculated with 8 μL of 1:6 diluted cells (1% inoculation). […] Supplement a fungicide and/or fluoride in the culture as necessary for each experiment.
# [2] = test system: Neurospora crassa (FGSC #2225); assay: Growth assays for antifungal compounds combined with fluoride: N. crassa; type: cell-based
# Experimental: Model Organism: Neurospora crassa (FGSC #2225) [Genotype: N. crassa, A]
# Methods: • 1. Recover N. crassa on a slant with minimal medium at 25° C. for 5-6 days to grow spores. • 2. Re-suspend two loops of spores in 2 mL minimal medium. • 3. Inoculate 20 μL into 2 mL minimal medium in an autoclaved 16×150 mm glass tube with cap. • 4. Supplement a fungicide and/or fluoride in the culture as necessary for each experiment. • 5. Grow for 24 h at 25° C. on a shaker (200 rpm).
# [3] = test system: Candida albicans (SC5314; ATCC number MYA-2876); assay: Growth assays for amphotericin B combined with fluoride: C. albicans; type: cell-based; settings: for effect on C. albicans growth: liquid medium, 48 hours
# Experimental: Organism: Candida albicans (SC5314; ATCC number MYA-2876)
# Methods: • 1. Pick an isolated C. albicans yeast colony from a plate, inoculate into 2 mL YPD medium in a 17 mL screw-cap tube and grow for 12 h at 28° C. on a shaker (200 rpm). The O.D.600 of the culture should be approximately 3.6. • 2. Two growth methods were used. (i) If culturing cells in 17 ml screw-cap tubes, dilute the cells 1:5 (1 volume of 12 hr cell culture plus 4 volumes of medium). Inoculate 2 mL YPD medium with 20 μL of 1-to-5 diluted cells (1% inoculation). Incubate at 28° C. and 200 rpm for 9 hours before measuring O.D. (ii) For growth curve measurements, culture cells in a honeycomb 2 plate with 400 μL of medium inoculated with 8 μL of 1-to-10 diluted cells (1% inoculation). Culture for 48 hrs at 28° C., measuring OD600 every 15 m without shaking in the Bioscreen C MBR instrument. • 3. Supplement a fungicide and/or fluoride in the culture as necessary for each experiment.
# [4] = test system: Saccharomyces cerevisiae MYH500; assay: Fungicidal fluoride assay (colony counts after culture in fluoride); type: cell-based; settings: 300 mM fluoride in liquid medium, 160 minute incubation
# Experimental: CrcB proteins are most likely fluoride transporters. The fungal expression of crcB and the subsequent ejection of fluorides from cells is a major mechanism for how these organisms overcome fluoride toxicity. To assess whether fluoride simply halts fungal growth (fungistatic) or kills fungal cells (fungicidal), a culture of Saccharomyces cereviciae and added 300 mM fluoride to the medium was prepared. Samples of this mixture were taken at various times, plated, and the number of resulting colonies were recorded (FIG. 1). […] Therefore, compounds that facilitate the uptake and/or retention of fluoride, or otherwise inhibit the fluoride toxicity mitigation responses of fungi, also function as fungicidal compounds when used in combination with fluoride.
# as §1
# Medium: YPD (liquid and solid)
# • 1. Pick an isolated yeast colony (S. cerevisiae MYH500) from a plate, inoculate into 2 mL YPD medium (liquid) in a 14 mL snap-cap tube and grow for 12 h at 30° C. on a shaker (200 rpm). • 2. Dilute 20 μL of the culture into 2 mL medium and mix. Remove a 20 μL aliquot and transfer to 2 mL YPD medium with 300 mM NaF. Grow at 30° C. on a shaker (200 rpm) for 10, 20, 40, 80, 160 and 240 m. • 3. At each time point, transfer 100 μL culture to an agar plate and distribute. • 4. […]
# [5] = test system: Escherichia coli crcB knock-out; settings: E. coli crcB knock-out compared to wild-type; cited from earlier work
# [6] = target: T1, crcB fluoride transporter (Escherichia coli, UniProt P37002); assay: Fluoride riboswitch beta-galactosidase reporter assay in E. coli cells with imipramine; type: cell-based
# T1 construct: endogenous in cells; host or cells: E. coli cells carrying a fluoride riboswitch beta-galactosidase reporter construct
# Text: Fluoride riboswitch fused to a beta-galactosidase reporter gene. Construct is present in E. coli cells and cells are exposed to concentrations of sodium fluoride and imipramine (x-axis) as noted in FIG. 10.
# [7] = test system: Saccharomyces cerevisiae MYH500; assay: Growth assays for Novexatin combined with fluoride: S. cerevisiae; type: cell-based; settings: S. cereviciae; for improvement in MIC at about 24 hours: 30 mM NaF, approximately 24 hours (26.25 h)
# Experimental: as §1
# Methods: • 1. Pick an isolated yeast colony (S. cerevisiae MYH500) from a plate, inoculate into 2 mL YPD medium in a 14 mL snap-cap tube and grow for 12 h at 30° C. on a shaker (200 rpm). The O.D.600 of the culture should be approximately 1.30. • 2. For growth curve measurements, culture cells in a honeycomb 2 plate with 80 μL of medium (final volume) inoculated with 2 μL of 1:12 diluted cells. Culture for 48 hrs at 30° C., measuring O.D.600 every 15 m without shaking in the Bioscreen C MBR instrument. • 3. Supplement a fungicide and/or fluoride in the culture as necessary for each experiment.
# T1 sequence (P37002 whole entry): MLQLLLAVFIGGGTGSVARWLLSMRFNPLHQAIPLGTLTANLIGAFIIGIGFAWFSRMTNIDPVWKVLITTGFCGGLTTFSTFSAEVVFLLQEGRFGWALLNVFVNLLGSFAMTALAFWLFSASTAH
compound,measurement,setting,value
[Cl-].[K+] [KCl],fungal growth inhibition compared with NaF,[1],consistently less effective than NaF
same,effect of ion on MIC of amphotericin B,[1],improve the MIC values of amphotericin B
[Cl-].[Na+] [NaCl],fungal growth inhibition compared with NaF,[1],consistently less effective than NaF
same,effect of ion on MIC of amphotericin B,[1],improve the MIC values of amphotericin B
C[C@@H]1[C@H](O)[C@@H](C)/C=C/C=C/C=C/C=C/C=C/C=C/C=C/[C@H](O[C@@H]2O[C@H](C)[C@@H](O)[C@H](N)[C@@H]2O)C[C@@H]2O[C@](O)(C[C@@H](O)C[C@@H](O)[C@H](O)CC[C@@H](O)C[C@@H](O)CC(=O)O[C@H]1C)C[C@H](O)[C@H]2C(=O)O [amphotericin B],effect of combination on growth inhibition,[1]; 10 nM amphotericin B in combination with a range of fluoride concentrations,dramatic increase in the growth-inhibition effects of fluoride
same,effect on cell growth,[1]; 10 nM amphotericin B used alone,almost no effect on cell growth
same,growth inhibition effect on S. cereviciae,[1]; 20 nM amphotericin B alone,almost no growth inhibition effect
same,improvement in MIC for S. cereviciae,[1]; 30 mM fluoride added to liquid medium,approximately 10 fold
same,improvement in MIC for S. cereviciae,[1]; 80 mM fluoride,~30 fold
same,amphotericin B concentration required to almost completely inhibit growth,"[1]; absence of fluoride, over 48 hours",300 nM
same,effect on S. cereviciae growth,"[1]; amphotericin B 30 to 70 nM, absence of fluoride",only marginally delay near full growth
same,amphotericin B concentration required to prevent N. crassa growth,"[2]; amphotericin B tested independently, 24 h",greater than 300 nM
same,reduction of MIC for N. crassa,[2]; combined with 10 mM fluoride,at least 4 fold
same,reduction of MIC for N. crassa,[2]; combined with 30 mM fluoride,≥ 10 fold
same,MIC for C. albicans,[3]; medium supplemented with 30 mM fluoride,~0.05 µM
"[F-].[Na+] [fluoride, Sodium fluoride]",loss of cell viability (colonies after plating),[4],near complete killing
same,effect on fungal growth,[1]; 60 mM fluoride combined with 20 nM amphotericin B,complete inhibition of growth
same,effect on fungal growth,[1]; 60 mM fluoride tested alone,only a modest effect on fungal growth
same,lengthening of time to near full culture growth,[1]; 80 mM fluoride alone,two fold
same,effect on S. cereviciae growth,"[1]; fluoride alone, 30 mM in liquid medium",only marginally affects
same,fluoride concentration required to completely inhibit fungal growth,"[1]; fluoride alone, 48-hour culture",> 100 mM
same,fluoride concentration required to completely prevent N. crassa growth,"[2]; fluoride tested independently, 24 h",greater than 80 mM
same,effect on C. albicans growth,[3]; 100 mM fluoride alone,only a modest inhibitory effect
same,effect on C. albicans growth,[3]; 300 mM fluoride alone,completely prevented growth
same,increase in sensitivity to fluoride of crcB knock-out strain,[5],approximately 200 fold
"CN(C)CCCN1c2ccccc2CCc2ccccc21 [imipramine, Imipramine]","reporter gene expression (fluorescence, substrate 4-MUG)","[6]; 330 μM imipramine, E. coli cells with riboswitch-reporter construct, sodium fluoride",increased expression of the reporter gene
same,reporter gene expression with imipramine in cells lacking CrcB,[6]; E. coli cells lacking the gene for fluoride transporter protein CrcB,substantially reduced
CN(C/C=C/C#CC(C)(C)C)Cc1cccc2ccccc12 [terbinafine],inhibition of S. cereviciae growth,[1],did not significantly inhibit S. cereviciae growth
Cc1cccc(N(C)C(=S)Oc2ccc3ccccc3c2)c1 [tolnaftate],inhibition of S. cereviciae growth,[1],did not significantly inhibit S. cereviciae growth
aculeacin A,effect of fluoride on inhibition of S. cereviciae growth by the antifungal,[1]; 30 mM fluoride,not affected at all; also recorded: lack of an effect
cyclic hepta-arginine [NOVEXATIN®],improvement in MIC at about 24 hours,[7],A similar result
same,improvement in MIC at about 24 hours,[7]; listed as Novexatin®,improvement in MIC
same,improvement in MIC,"[7]; combined with 30 mM fluoride, 48 h",greater than 3 fold
same,concentration needed to almost completely prevent fungal growth,"[7]; over 48 hours, no fluoride",3 mM
